Consider 83 compounds from US12156523B2 (priority 2017, dated 2024).

Molecules are shown by their SMILES. A value given as a limit tells only on which side of the number the result lay.

This assay deals with Pyricularia oryzae. Nature of the assay: whole plant or invertebrate. The assay is classed as in vivo. The note with it: soil, read-out: Control value (number of lesions at the second leaf).
Take `CC(C)Oc1cccc(N(C)C(=O)c2cc(F)nc(F)c2F)c1` [Example 1-1]: the pest or weed control at 10 µg/mL is at least 80%.
Regarding `CN(C(=O)c1cc(F)nc(F)c1F)c1ccccc1` [Example 1-2], the pest or weed control at 10 µg/mL is at least 80%.
Regarding `O=C(Nc1c(F)c(F)c(C(F)(F)F)c(F)c1F)c1cc(F)nc(F)c1F` [Example 1-4], the pest or weed control at 10 µg/mL was at least 80%.
As for `O=C(Nc1cccc(Cl)c1Cl)c1cc(F)nc(F)c1F` [Example 1-5], the figure is at least 80%.
Next, `Cc1cccc(C)c1NC(=O)c1cc(F)nc(F)c1F` [Example 1-7]: at least 80%; `O=C(Nc1ccc2c(c1)OCCO2)c1cc(F)nc(F)c1F` [Example 1-9]: at least 80%; `O=C(NC1=NCCS1)c1cc(F)nc(F)c1F` [Example 1-12]: at least 80%.
Regarding `Cc1ccccc1NC(=O)c1cc(F)nc(F)c1F` [Example 1-14], the pest or weed control at 10 µg/mL was at least 80%.
Next, `O=C(Nc1cnccn1)c1cc(F)nc(F)c1F` [Example 1-15]: at least 80%; `O=C(Nc1ccccn1)c1cc(F)nc(F)c1F` [Example 1-16]: at least 80%.
Next, `O=C(Nc1ncccn1)c1cc(F)nc(F)c1F` [Example 1-17]: at least 80%; `COc1cc(NC(=O)c2cc(F)nc(F)c2F)cc(OC)c1OC` [Example 1-20]: at least 80%.
As for `O=C(Nc1ccc(F)c(F)c1)c1cc(F)nc(F)c1F` [Example 1-21], the figure is at least 80%; as for `COc1ccc(NC(=O)c2cc(F)nc(F)c2F)cc1OC` [Example 1-22], at least 80%.
As for `O=C(Nc1cc(Cl)cc(Cl)c1)c1cc(F)nc(F)c1F` [Example 1-24], the pest or weed control at 10 µg/mL is at least 80%.
`COc1cc(NC(=O)c2cc(F)nc(F)c2F)cc(OC)c1` [Example 1-25]: the pest or weed control at 10 µg/mL is at least 80%.
As for `Cc1cc(C)cc(NC(=O)c2cc(F)nc(F)c2F)c1` [Example 1-26], the figure is at least 80%; as for `O=C(Nc1cccc(Cc2ccccc2)c1)c1cc(F)nc(F)c1F` [Example 1-27], at least 80%.
Take `Cc1ccc(NC(=O)c2cc(F)nc(F)c2F)cc1Br` [Example 1-28]: the pest or weed control at 10 µg/mL is at least 80%.
As for `O=C(Nc1ccc(F)c(Cl)c1)c1cc(F)nc(F)c1F` [Example 1-29], the pest or weed control at 10 µg/mL was at least 80%.
As for `N#Cc1ccccc1NC(=O)c1cc(F)nc(F)c1F` [Example 1-35], the figure is at least 80%; as for `CCOC(=O)c1cccc(NC(=O)c2cc(F)nc(F)c2F)c1` [Example 1-37], at least 80%.
As for `Cc1ccc(NC(=O)c2cc(F)nc(F)c2F)cc1F` [Example 1-39], the pest or weed control at 10 µg/mL was at least 80%.
For `Cc1ccc(NC(=O)c2cc(F)nc(F)c2F)cc1I` [Example 1-40], the pest or weed control at 10 µg/mL is at least 80%.
Take `Cc1cccc(NC(=O)c2cc(F)nc(F)c2F)c1` [Example 1-46]: the pest or weed control at 10 µg/mL was at least 80%.
As for `O=C(Nc1cccc(Oc2ccccc2)c1)c1cc(F)nc(F)c1F` [Example 1-47], the figure is at least 80%; as for `O=C(Nc1cccnn1)c1cc(F)nc(F)c1F` [Example 1-48], at least 80%.
As for `CC(C)(C)Oc1cccc(NC(=O)c2cc(F)nc(F)c2F)c1` [Example 1-50], the pest or weed control at 10 µg/mL is at least 80%.
Next, `O=C(Nc1nc[nH]n1)c1cc(F)nc(F)c1F` [Example 1-51]: at least 80%; `O=C(Nc1cccc(OC(F)(F)F)c1)c1cc(F)nc(F)c1F` [Example 1-52]: at least 80%.
As for `O=C(Nc1ccc(Cl)cc1)c1cc(F)nc(F)c1F` [Example 1-54], the figure is at least 80%; as for `N#Cc1ccc(NC(=O)c2cc(F)nc(F)c2F)cc1` [Example 1-55], at least 80%; as for `CCOC(=O)c1ccc(NC(=O)c2cc(F)nc(F)c2F)cc1` [Example 1-56], at least 80%.
As to `CCOc1ccc(NC(=O)c2cc(F)nc(F)c2F)cc1` [Example 1-57], the pest or weed control at 10 µg/mL was at least 80%.
Next, `Cc1cc(NC(=O)c2cc(F)nc(F)c2F)ccc1F` [Example 1-58]: at least 80%; `COc1ccc(NC(=O)c2cc(F)nc(F)c2F)cc1` [Example 1-61]: at least 80%.
Next, `COc1cc(NC(=O)c2cc(F)nc(F)c2F)ccc1C` [Example 1-63]: at least 80%.
With `Cc1ccc(NC(=O)c2cc(F)nc(F)c2F)cc1[N+](=O)[O-]` [Example 1-64], the pest or weed control at 10 µg/mL is at least 80%.
For `Cc1ccc(NC(=O)c2cc(F)nc(F)c2F)cc1C(F)(F)F` [Example 1-65], the pest or weed control at 10 µg/mL is at least 80%.
`Cc1ccc(NC(=O)c2cc(F)nc(F)c2F)cc1` [Example 1-66]: the pest or weed control at 10 µg/mL is at least 80%.
Next, `O=C(Nc1ccc([N+](=O)[O-])cc1)c1cc(F)nc(F)c1F` [Example 1-67]: at least 80%; `O=C(Nc1ccc(Oc2ccccc2)cc1)c1cc(F)nc(F)c1F` [Example 1-68]: at least 80%.
Next, `CC(C)(C)Oc1ccc(NC(=O)c2cc(F)nc(F)c2F)cc1` [Example 1-70]: at least 80%.
As for `CC(C)(C)c1ccc(NC(=O)c2cc(F)nc(F)c2F)cc1` [Example 1-71], the figure is at least 80%; as for `Cc1cc(NC(=O)c2cc(F)nc(F)c2F)no1` [Example 1-73], at least 80%.
Take `Cc1cnc(NC(=O)c2cc(F)nc(F)c2F)s1` [Example 1-74]: the pest or weed control at 10 µg/mL is at least 80%.
Consider `O=C(NCCO)c1cc(F)nc(F)c1F` [Example 1-78], for which the pest or weed control at 10 µg/mL is at least 80%.
As for `O=C(NCCS)c1cc(F)nc(F)c1F` [Example 1-79], the figure is at least 80%; as for `O=C(NC(CO)c1ccccc1)c1cc(F)nc(F)c1F` (centres unmarked) [Example 1-81], at least 80%.
Next, `CC(NC(=O)c1cc(F)nc(F)c1F)c1ccc(Cl)cc1` (centres unmarked) [Example 1-84]: at least 80%.
As for `CC(NC(=O)c1cc(F)nc(F)c1F)c1ccccc1` (centres unmarked) [Example 1-85], the figure is at least 80%; as for `O=C(NCCBr)c1cc(F)nc(F)c1F` [Example 1-87], at least 80%.
With `CCCNC(=O)c1cc(F)nc(F)c1F` [Example 1-88], the pest or weed control at 10 µg/mL is at least 80%.
In the case of `N#CCNC(=O)c1cc(F)nc(F)c1F` [Example 1-91], the pest or weed control at 10 µg/mL is at least 80%.
Next, `CNC(=O)c1cc(F)nc(F)c1F` [Example 1-92]: at least 80%; `CCCCCCCCNC(=O)c1cc(F)nc(F)c1F` [Example 1-96]: at least 80%; `O=C(NCc1ccccc1)c1cc(NC(=O)c2cc(F)nc(F)c2F)ccc1Cl` [Example 1-99]: at least 80%.
Next, `O=C(OCc1ccccc1Cl)c1cc(F)nc(F)c1F` [Example 1-100]: at least 80%; `O=C(OCc1snc(Cl)c1Cl)c1cc(F)nc(F)c1F` [Example 1-104]: at least 80%; `O=C(Oc1ccc(Cl)cc1)c1cc(F)nc(F)c1F` [Example 1-107]: at least 80%.
For `N#Cc1ccc(OC(=O)c2cc(F)nc(F)c2F)cc1` [Example 1-108], the pest or weed control at 10 µg/mL is at least 80%.
Regarding `COc1ccc(COC(=O)c2cc(F)nc(F)c2F)cc1` [Example 1-109], the pest or weed control at 10 µg/mL is at least 80%.
As for `Cc1ccc(COC(=O)c2cc(F)nc(F)c2F)cc1` [Example 1-110], the figure is at least 80%.
As for `Cc1ccc(OC(=O)c2cc(F)nc(F)c2F)cc1` [Example 1-111], the figure is at least 80%; as for `O=C(Oc1ccc([N+](=O)[O-])cc1)c1cc(F)nc(F)c1F` [Example 1-112], at least 80%; as for `O=C(OCc1ccccc1)c1cc(F)nc(F)c1F` [Example 1-114], at least 80%.
As for `CC(OC(=O)c1cc(F)nc(F)c1F)C(F)(F)F` (centres unmarked) [Example 1-115], the figure is at least 80%; as for `CCOC(=O)c1cc(F)nc(F)c1F` [Example 1-117], at least 80%.
`CC(C)OC(=O)c1cc(F)nc(F)c1F` [Example 1-118]: the pest or weed control at 10 µg/mL was at least 80%.
Next, `C#CCOC(=O)c1cc(F)nc(F)c1F` [Example 1-119]: at least 80%; `O=C(OCC(F)(F)F)c1cc(F)nc(F)c1F` [Example 1-120]: at least 80%.
Turning to `O=C(OCC=C(Cl)Cl)c1cc(F)nc(F)c1F` [Example 1-122], the pest or weed control at 10 µg/mL is at least 80%.
In the case of `CCCOC(=O)c1cc(F)nc(F)c1F` [Example 1-123], the pest or weed control at 10 µg/mL is at least 80%.
Next, `O=C(OC/C=C/c1ccccc1)c1cc(F)nc(F)c1F` [Example 1-124]: at least 80%; `CCOC(=O)COC(=O)c1cc(F)nc(F)c1F` [Example 1-125]: at least 80%.
As for `CCCCCCCCOC(=O)c1cc(F)nc(F)c1F` [Example 1-127], the figure is at least 80%; as for `O=C(Sc1ccccc1)c1cc(F)nc(F)c1F` [Example 1-130], at least 80%.
In the case of `O=C(NCc1ccccc1)c1cc(F)nc(F)c1` [Example 1-140], the pest or weed control at 10 µg/mL was at least 80%.
Next, `CC(NC(=O)c1cc(F)nc(F)c1)c1ccc(Cl)cc1` (centres unmarked) [Example 1-141]: at least 80%.
For the compound `O=C(Nc1ccccc1)c1cc(F)nc(F)c1` [Example 1-143], the pest or weed control at 10 µg/mL is at least 80%.
Next, `CC(=O)Oc1ccccc1COC(=O)c1cc(F)nc(F)c1` [Example 1-145]: at least 80%; `O=C(Nc1ccccc1)c1ccnc(C(F)(F)F)c1` [Example 1-146]: at least 80%.
As for `CCOC(=O)c1ccnc(C(F)(F)F)c1` [Example 1-147], the figure is at least 80%.
